Test results published in patent publication US20170137481A1, “Use of Cell-Permeable Peptide Inhibitors of the JNK Signal Transduction Pathway for the Treatment of Various Diseases” (Xigen Inflammation Ltd., priority 2014, published 2017).
Marks after values point to notes of the source that are not given here.

What was measured:
[1] = tested on: patients who underwent complex ocular surgery; assay: Phase II post-surgery intraocular inflammation, safety
Excerpt: The criteria for evaluation of safety were:
An AE is therefore any unfavorable and unintended sign, symptom or disease temporally associated with the use of a medicinal product, whether or not considered related to the medicinal product.
The present study was a double-blind study. All patients who were randomized and for whom the sub-conjunctival injection was started are included in the safety analysis by dose group. […] If the study treatment eye drops were stopped prematurely (i.e. before day 21), the patients concerned continued follow-up until day 28, in accordance with the study protocol.
Investigators assessed (in a blinded manner) the relationship of each reported AE to any of the study treatments. An event was considered to be related to study treatment if the Investigator ticked either ‘possible’ or ‘probable’ as the reply to this question.

[2] = tested on: post-surgery intraocular inflammation; assay: Phase II post-surgery intraocular inflammation, efficacy; format: in vivo, human; conditions: for Cleared ocular inflammation (cell grade 0 and flare grade 0): Yes: Dexamethasone
Protocol: The objectives of the present study were to evaluate the efficacy and safety of a single sub-conjunctival injection of XG-102 90 or 900 μg administered within maximally 3 hours after the end of the surgical procedure compared to dexamethasone eye drops administered 4 times/day for 21 days in post-operative intraocular inflammation.
In accordance with this trial's primary objective, the primary outcome was evaluated by the mean anterior chamber cells grade at day 28 post-administration of the sub-conjunctival injection of study treatment comparing XG-102 900 μg with dexamethasone eye drops.
The present trial was a randomized (1:1:1), controlled, double-blind, multicenter non-inferiority clinical trial with three parallel groups of equal size. Randomization, which was blocked by center, was performed using a web-based, secure, randomization system. Eligible patients were male or female (post-menopausal, or sterile by tubal ligation or hysterectomy), who were >18 years of age and who had undergone one of the following ocular surgeries: (a) anterior and posterior segment combined surgery which may include surgery for: cataract and retinal detachment, cataract and epimacular membrane and/or cataract and macular hole or (b) glaucoma surgery or (c) complex posterior segment surgery or (d) complicated intraocular surgery which may include cataract surgery associated with diabetic retinopathy and/or complicated retinal detachment ocular surgery. Patients were not eligible to participate if any of the following exclusion criteria was present at the moment of randomization:
The study protocol planned that 138 patients would be randomized and administered the sub-conjunctival injection of study treatment. […] Patients were randomly allocated to either XG-102 90 or 900 μg which was administered as a single, sub-conjunctival injection of 250 μl within maximally 3 hours after the end of the eye surgery or to dexamethasone eye drops, which were instilled 4 times per day for 21 days. The first study treatment eye drop was instilled within maximally 15 minutes after the sub-conjunctival injection of study treatment. In order to maintain the blinding, patients randomized to the XG-102 group received eye drops containing a NaCl 0.9% solution and patients randomized to the dexamethasone group were administered a sub-conjunctival injection containing NaCl 0.9%. Patients were followed for, in total, 28 (±5) days after administration of the sub-conjunctival injection of study treatment.
Patients were randomized to one of the three study groups: • 1. A single sub-conjunctival injection of XG-102 90 μg+placebo eye drops 4 times/day for 21 days or • 2. A single sub-conjunctival injection of XG-102 900 μg+placebo eye drops 4 times/day for 21 days or • 3. A single sub-conjunctival injection of NaCl 0.9%+dexamethasone eye drops 4 times/day for 21 days.
The primary objective was evaluated by the mean anterior chamber cells grade at day 28 post-administration of the sub-conjunctival administration of study treatment. The criteria for evaluation of the primary objective was
The ophthalmology examinations were performed at baseline (i.e. either on the day of surgery, but before the surgery was performed). […] In order to reduce operator variability, the sites were instructed that, where possible, the same operator should perform all ophthalmology examinations for the same patient throughout the trial. The ophthalmology measurements were performed in accordance with the study-specific instructions. The latter were reviewed and discussed with the site teams during the initiation visit and during each monitoring visit. For the determination of the cell/flare count and cell/flare grade, the SUN Working Group's consensus was used by the sites using the SUN Working group definitions (“Standardization of Uveitis Nomenclature for Reporting Clinical Data. Results of the First International Workshop.,” American Journal of Ophthalmology, vol 140, no. 3, pp. 509-516, 2005). […]

[3] = tested on: light-induced photoreceptor cell death in Sprague-Dawley rats; assay: Photoreceptor light damage in albino rat (ERG, ONL thickness); format: in vivo
Protocol: The aim of this study was to investigate the dose effect of XG-102 on light-induced photoreceptor cell death.
Test item (XG-102: 30 mg/ml, 3 mg/ml, and 0.3 mg/ml) and vehicle (0.9% NaCl) were administered by intravitreal injection in right eyes the day before induction. The reference (Phenyl-N-test-Butylnitrone (PBN) (50 mg/kg)) and vehicle were intraperitoneally injected 30 min before induction then, 3 times during 12 hours of light exposition, then once after induction. Animals were placed in constant light (7000 lux) for 24 h. Electroretinograms (ERG) were recorded before light treatment and on days 9, 16 and 23 after induction. Eyes were then taken for histology and outer nuclear layer (ONL) thickness assessment. The table below summarizes the allocation of animals in treatment groups:
For the intravitreal injection animals were anesthetized by intramuscular injection of a mixture of xylazine/ketamine. Test item (5 μl) and vehicle (5 μl) were injected in the right eye. The injection was performed under an operating microscope in the supratemporal area at pars plana using a 33G-needle mounted on a 50 μl Hamilton. The filled syringe was mounted into the UltraMicroPump III to achieve accurate injection in microliter range. Reference and vehicle were injected intraperitoneally at a dose volume of 2.5 ml/kg using a 30G-needle mounted on a 1 ml-syringe.
Light Exposure: The rats that had been dark-adapted overnight were exposed for 24 hours to a continuous white fluorescent light (7000 lx) in clear plastic cages. Each cage contained one rat. After exposure, the rats returned to rearing cyclic light conditions.
The body weight of all animals was recorded before the start of the study then at the end of the study. Each day, the general behavior and the aspect of all animals were observed. ERG was recorded before induction and 7, 14 and 21 days after cessation of exposure (Days 9, 16 and 23) on right eyes of dark-adapted and anesthezied animals. The latency times (for a- and b-wave) and the a-wave and b-wave amplitudes were measured for each ERG; the latency times were expressed as millisecond and the a-wave and b-wave as a percentage of the baseline value obtained before light exposure. 15 min before measurement 10 μl Mydriaticum® (0.5% tropicamide) were instilled for pupillary dilatation.
ERG Parameters: • Color: white maximum. • Maximum intensity: 2.6 cd.s/m^2 (0 dB); Duration 0.24 ms; number of flash: 1. • Filter: 50 Hz. • Impedence Threshold: 90 kΩ.
Measurement of the ONL Thickness: After ERG testing, animal was euthanized by an overdose of pentobarbital and the right eyes were enucleated, fixed and embedded in paraffin. Sections (5 μm thick) were performed along the vertical meridian and stained with Trichrome-Masson. The vertical meridian included the optic nerve.
Group mean values and standard deviation were calculated. A statistical Mann and Whitney test was used to evaluate the differences between pair-wise groups. For comparison between time-point into each vehicle groups, a Friedman test was used.

[4] = tested on: Endotoxin-Induced Uveitis in Lewis rats; assay: Endotoxin-Induced Uveitis (EIU), action duration after subconjunctival administration; format: in vivo, rat
Excerpt: The aim of this study was to evaluate the duration of action of SDD-1002 following sub-conjunctival administration in a rat model of EIU.
90 male Lewis rats were used, age approximately 6-8 weeks (at the induction), 4 weeks (at the injection for the Day-28), 5 weeks (at the injection for the Day-21), 6 weeks (at the injection for the Day-14, Day-7 and for the Day 0), 7 weeks (at the injection for Day-2 and Day-1), and housed by five in standard cages. Animals were allocated to the following groups: Group No. Treatment Dose Time-point
Thus, each animal received a single subconjunctival injection of either XG-102 (20 μg/eye), saline (0.9% NaCl) vehicle control or Solumedrol® (20 μg/eye) into each eye. Methylprednisolone (Solumedrol®) is most commonly used in uveitis as sub-conjunctival treatment.
On Day 0, ocular inflammation was induced by a single footpad injection of liposaccharide (LPS, 1 mg/kg, 0.5 mL/kg Sigma # L6511) on anesthetized animals. LPS powder was reconstituted the day of induction. XG-102 was administered by a single injection (20 microgram/5 microL) in each eye on Day-28 or Day-21 or Day-14 or Day-7 or Day-2 or Day-1 or Day 0 (immediately before induction). Saline control and reference item (Solumedrol®; 20 μg/eye) were administered by a single injection in each eye on Day 0 (immediately before induction).
Animals were examined with a slit-lamp before XG-102 administration (baseline) before induction (Day 0) then 24 h after induction (Day 1). The inflammation was graded using a scoring system as described by Devos A., Van Haren M., Verhagen C., Hoek Zema R., Kijlstra A: Systemic anti-tumor necrosis factor antibody treatment exacerbates Endotoxin Induced Uveitis in the rat. Exp. Eye. Res. 1995; 61: 667-675. Briefly, flare, miosis and hypopion were scored for absence (0), or presence (1), iris hyperemia and cells in the anterior chamber were scored for absence (0), or mild (1) or severe presence (2). The maximum score (sum of the five parameter scores) was 7.
At the end of the evaluation (24 h after induction), animals were euthanized by intravenous injection of overdosed pentobarbital. The aqueous humor was collected immediately for each eye. For quantification of Cellular Infiltration in Aqueous Humor (AH), the sample was diluted 10-fold with PBS before detection. The number of infiltrated cells was manually counted after Giemsa staining under microscope.

[5] = molecular target: JNK of primary mouse cortical neuron cultures; assay: cell-based or functional assay
[6] = Dexamethasone group, blinded assessment
[7] = 20 μg/eye, both eyes treated on the day of induction, 24 h after LPS
[8] = 20 μg/eye, both eyes treated on the day of induction, vs vehicle

## C[C@@H]1C[C@H]2[C@@H]3CCC4=CC(=O)C=C[C@]4(C)[C@@]3(F)[C@@H](O)C[C@]2(C)[C@@]1(O)C(=O)CO [Dexamethasone, reference compound]
[1]; Dexamethasone (N = 50)
  AEs possibly or probably related to study treatment as assessed by the Investigator: 15 Total # events
[1]; Dexamethasone dose group
  Adverse events which led to an interruption of study treatment: 3 (5.5%) number of events (% of reported events)
  Reported AEs by severity: Mild: 42 (76.4%) number of events (%)
  Reported AEs by severity: Moderate: 9 (16.4%) number of events (%)
  Reported AEs by severity: Severe: 4 (7.3%) number of events (%)
[1]; [6]
  AEs considered by the Investigator to be related to Dexamethasone: 2 (3.6%) # events (%)
  AEs considered by the Investigator to be related to XG-102: 13 (23.64%) # events (%)
[1]; dexamethasone group
  AEs possibly or probably related to study medication: 15 events
  Intraocular pressure increased, patients: 14%
  events in SOC EYE DISORDERS: 30 events
  events resulting in premature withdrawal of study treatment eye drops: 3 events
  patients with SAE: 2 patients
  patients with event in SOC EYE DISORDERS: 16 (32%)
  percentage of patients with an AE within 24 hours after administration: 30%
  total number of AEs reported: 55
[2]; Visit 1 (21 hours), Full analysis population
  Cleared ocular inflammation (cell grade 0 and flare grade 0): Yes: 4 (8.2%) # patients (%)
[2]; Visit 1 (21 hours), Per-protocol population
  Cleared ocular inflammation (cell grade 0 and flare grade 0): Yes: 4 (8.2%) # patients (%)
[2]; Visit 2 (7 days), Full analysis population
  Cleared ocular inflammation (cell grade 0 and flare grade 0): Yes: 9 (18.8%) # patients (%)
[2]; Visit 2 (7 days), Per-protocol population
  Cleared ocular inflammation (cell grade 0 and flare grade 0): Yes: 9 (18.8%) # patients (%)
[2]; Visit 3 (14 days), Full analysis population
  Cleared ocular inflammation (cell grade 0 and flare grade 0): Yes: 10 (20.4%) # patients (%)
[2]; Visit 3 (14 days), Per-protocol population
  Cleared ocular inflammation (cell grade 0 and flare grade 0): Yes: 10 (21.3%) # patients (%)
[2]; Visit 4 (28 days), Full analysis population
  Cleared ocular inflammation (cell grade 0 and flare grade 0): Yes: 17 (35.4%) # patients (%)
[2]; Visit 4 (28 days), Per-protocol population
  Cleared ocular inflammation (cell grade 0 and flare grade 0): Yes: 15 (34.9%) # patients (%)
[2]; eye drops 4 times/day, 21 days
  percentage of patients for whom rescue medication was introduced: 4.0%

## CC(C)(C)[N+]([O-])=Cc1ccccc1 [PBN, Phenyl-N-tert-Butylnitrone, reference compound]
[3]; 50 mg/kg i.p., Day 9
  recovery of the a-wave (% of baseline): 70.4%
  recovery of the b-wave (% of baseline): 100%
[3]; 50 mg/kg i.p., Day 16
  recovery of the a-wave (% of baseline): 79.6%
  recovery of the b-wave (% of baseline): 103.6%
[3]; 50 mg/kg i.p., Day 23
  loss of mean ONL thickness versus untreated eyes: 16%
  recovery of the a-wave (% of baseline): 76.2%
  recovery of the b-wave (% of baseline): 102.4%
[3]; rat, in vivo, ip, 50 mg/kg
  ERG B-wave amplitude, percent of baseline, Mean ± SD: 100 ± 18.6%
  ONL thickness: 34.05 ± 4.00 μm
  ONL thickness Loss (% comparison with control non-induced eye): 16%

## C[C@H]1C[C@@H]2[C@H]([C@@H](O)C[C@@]3(C)[C@H]2CC[C@]3(O)C(=O)CO)[C@@]2(C)C=CC(=O)C=C12 [methylprednisolone, Methylprednisolone]
[4]; 20 μg/eye on Day 0
  clinical score, mean: 2.0±0.2
  clinical score, median: 2
  reduction of clinical score: 50%
[4]; [7]
  EIU clinical score, Mean ± SEM (n = 20): 2.0 ± 0.2
  EIU clinical score, Median: 2.0
  Inflammatory cells infiltrated into aqueous humor, Mean ± SEM (n = 20): 3170 ± 276 cells/μL
  Inflammatory cells infiltrated into aqueous humor, Median: 3385 cells/μL
[4]; [8]
  Reduction of clinical scores: 50%
  Reduction of leucocytes: 2%

## D-TAT-IB1(s) (peptide)
[5]
  JNK activation (immunoblot) in Aβ42-stressed PKR-/- cortical neurons; peptide at 10 µM: -35%
  JNK activity (pJNK/JNK ratio, immunoblot) in cortical neurons under H2O2 oxidative stress; peptide at 10 µM: 45%
  c-Jun phosphorylation (immunoblot) in Aβ42-stressed WT cortical neurons; peptide at 10 µM: -74%
